{"source": "patent US12343326B2", "about": "“Psychoactive medicines and their use for treating psychiatric and neurological conditions and disorders” (Transcend Therapeutics, Inc., priority 2021, dated 2025)", "experiment_in_all_cases": "β-arrestin based GPCR screen (PathHunter / GPCRmax), agonist mode", "type_in_all_cases": "cell-based", "parameters_in_all_cases": "host or cells: PathHunter cell lines", "key": {"168 GPCRs [1]": {"target": "168 GPCRs (Homo sapiens, UniProt P25116)", "settings": "F2R", "protocol": "(§1) For agonist determination, cells were incubated with sample to induce response. […] Vehicle concentration was 1%."}, "168 GPCRs [2]": {"target": "168 GPCRs (Homo sapiens, UniProt P30872)", "sequence (P30872 whole entry)": "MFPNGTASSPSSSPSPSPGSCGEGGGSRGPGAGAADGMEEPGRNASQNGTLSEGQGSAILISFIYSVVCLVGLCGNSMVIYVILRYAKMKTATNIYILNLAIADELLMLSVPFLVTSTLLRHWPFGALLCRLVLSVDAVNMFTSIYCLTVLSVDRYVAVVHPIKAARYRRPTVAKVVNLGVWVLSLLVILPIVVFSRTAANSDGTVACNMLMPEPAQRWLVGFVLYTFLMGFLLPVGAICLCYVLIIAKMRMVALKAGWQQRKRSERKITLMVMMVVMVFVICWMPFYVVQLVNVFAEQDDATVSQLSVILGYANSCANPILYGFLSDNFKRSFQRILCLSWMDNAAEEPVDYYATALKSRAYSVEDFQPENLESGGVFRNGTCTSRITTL", "protocol": "as §1"}, "168 GPCRs [3]": {"target": "168 GPCRs (Homo sapiens, UniProt Q96LB2)", "sequence (Q96LB2 whole entry)": "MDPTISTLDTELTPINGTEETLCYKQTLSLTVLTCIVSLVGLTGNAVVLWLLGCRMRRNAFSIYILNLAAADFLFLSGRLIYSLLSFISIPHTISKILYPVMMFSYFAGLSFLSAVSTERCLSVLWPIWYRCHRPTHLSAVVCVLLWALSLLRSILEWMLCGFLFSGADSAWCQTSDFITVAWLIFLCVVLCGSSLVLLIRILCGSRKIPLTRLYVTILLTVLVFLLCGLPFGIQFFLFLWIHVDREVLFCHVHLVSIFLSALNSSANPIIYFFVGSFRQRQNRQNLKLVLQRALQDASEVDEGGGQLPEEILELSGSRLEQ", "protocol": "as §1"}, "168 GPCRs [4]": {"target": "168 GPCRs (Homo sapiens, UniProt Q8TDS5)", "protocol": "as §1"}, "168 GPCRs [5]": {"target": "168 GPCRs (Homo sapiens, UniProt Q9P296)", "sequence (Q9P296 whole entry)": "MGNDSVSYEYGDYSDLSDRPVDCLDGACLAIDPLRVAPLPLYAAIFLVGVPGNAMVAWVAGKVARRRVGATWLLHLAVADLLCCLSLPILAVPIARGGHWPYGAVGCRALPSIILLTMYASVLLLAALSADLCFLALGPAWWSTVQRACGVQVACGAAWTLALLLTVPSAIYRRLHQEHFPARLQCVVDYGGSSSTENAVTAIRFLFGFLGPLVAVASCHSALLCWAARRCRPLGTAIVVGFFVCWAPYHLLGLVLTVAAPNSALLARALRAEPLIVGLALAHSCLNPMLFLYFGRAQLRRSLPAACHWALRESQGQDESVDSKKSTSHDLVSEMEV", "settings": "C5L2, Agonist", "protocol": "as §1"}, "168 GPCRs [6]": {"target": "168 GPCRs (Homo sapiens, UniProt P49238)", "protocol": "as §1"}, "168 GPCRs [7]": {"target": "T1, 168 GPCRs (Homo sapiens, UniProt P32248)", "T1 sequence (P32248 25-378)": "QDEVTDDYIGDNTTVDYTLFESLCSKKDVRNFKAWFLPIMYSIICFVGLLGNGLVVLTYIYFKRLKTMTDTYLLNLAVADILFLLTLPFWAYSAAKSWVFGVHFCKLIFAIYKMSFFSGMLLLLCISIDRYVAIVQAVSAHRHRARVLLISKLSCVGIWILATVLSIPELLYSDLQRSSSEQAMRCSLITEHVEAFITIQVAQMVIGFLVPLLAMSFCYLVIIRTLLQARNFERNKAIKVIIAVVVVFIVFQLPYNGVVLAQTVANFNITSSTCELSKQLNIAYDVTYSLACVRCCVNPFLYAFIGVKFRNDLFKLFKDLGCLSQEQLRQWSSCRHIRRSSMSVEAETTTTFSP", "settings": "CCR7, Agonist", "protocol": "as §1"}, "168 GPCRs [8]": {"target": "168 GPCRs (Homo sapiens, UniProt Q8TDS4)", "sequence (Q8TDS4 whole entry)": "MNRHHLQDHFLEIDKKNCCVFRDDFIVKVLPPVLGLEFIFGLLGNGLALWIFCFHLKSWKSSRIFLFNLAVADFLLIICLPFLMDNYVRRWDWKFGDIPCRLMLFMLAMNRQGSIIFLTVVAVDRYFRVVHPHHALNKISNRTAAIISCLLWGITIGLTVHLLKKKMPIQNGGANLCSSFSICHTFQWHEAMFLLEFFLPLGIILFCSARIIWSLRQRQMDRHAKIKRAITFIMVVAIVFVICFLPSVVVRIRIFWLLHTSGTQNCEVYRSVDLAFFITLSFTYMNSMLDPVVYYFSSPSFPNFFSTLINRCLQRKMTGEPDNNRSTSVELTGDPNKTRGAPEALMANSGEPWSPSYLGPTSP", "settings": "GPR109A", "protocol": "as §1"}, "168 GPCRs [9]": {"target": "168 GPCRs (Homo sapiens, UniProt P35346)", "sequence (P35346 whole entry)": "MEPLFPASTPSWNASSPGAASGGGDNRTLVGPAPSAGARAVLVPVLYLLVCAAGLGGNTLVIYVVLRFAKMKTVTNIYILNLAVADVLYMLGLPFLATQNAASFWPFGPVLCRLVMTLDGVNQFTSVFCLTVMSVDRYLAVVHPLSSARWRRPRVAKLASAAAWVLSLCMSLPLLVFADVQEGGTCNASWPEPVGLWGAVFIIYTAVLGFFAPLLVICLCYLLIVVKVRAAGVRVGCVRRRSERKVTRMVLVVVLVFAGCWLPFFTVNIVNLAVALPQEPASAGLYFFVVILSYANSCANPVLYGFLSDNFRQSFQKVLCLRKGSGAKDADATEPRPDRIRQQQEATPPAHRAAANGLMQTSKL", "protocol": "as §1"}, "168 GPCRs [10]": {"target": "168 GPCRs (Homo sapiens, UniProt P51582)", "sequence (P51582 whole entry)": "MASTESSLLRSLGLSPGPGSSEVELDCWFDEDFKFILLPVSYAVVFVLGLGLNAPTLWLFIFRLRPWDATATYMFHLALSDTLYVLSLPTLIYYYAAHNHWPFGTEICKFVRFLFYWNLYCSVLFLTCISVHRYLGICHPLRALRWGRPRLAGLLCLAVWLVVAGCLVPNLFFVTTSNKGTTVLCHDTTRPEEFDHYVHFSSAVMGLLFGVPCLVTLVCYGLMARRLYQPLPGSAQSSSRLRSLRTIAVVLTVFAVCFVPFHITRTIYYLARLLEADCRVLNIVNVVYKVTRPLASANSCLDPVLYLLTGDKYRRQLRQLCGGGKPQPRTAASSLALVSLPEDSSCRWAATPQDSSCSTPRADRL", "protocol": "as §1"}, "168 GPCRs [11]": {"target": "168 GPCRs (Homo sapiens, UniProt P49190)", "protocol": "as §1"}, "168 GPCRs [12]": {"target": "168 GPCRs (Homo sapiens, UniProt Q15722)", "sequence (Q15722 whole entry)": "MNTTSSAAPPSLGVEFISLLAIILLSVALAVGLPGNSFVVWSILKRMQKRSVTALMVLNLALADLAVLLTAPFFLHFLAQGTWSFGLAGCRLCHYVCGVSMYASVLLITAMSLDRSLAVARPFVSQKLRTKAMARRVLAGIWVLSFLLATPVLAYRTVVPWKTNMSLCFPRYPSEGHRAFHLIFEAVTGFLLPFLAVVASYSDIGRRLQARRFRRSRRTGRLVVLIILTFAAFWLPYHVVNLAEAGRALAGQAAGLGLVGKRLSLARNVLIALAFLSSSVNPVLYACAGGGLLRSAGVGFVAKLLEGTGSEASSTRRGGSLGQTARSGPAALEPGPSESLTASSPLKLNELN", "settings": "LTB4R", "protocol": "as §1"}, "168 GPCRs [13]": {"target": "168 GPCRs (Homo sapiens, UniProt Q9UKP6)", "sequence (Q9UKP6 whole entry)": "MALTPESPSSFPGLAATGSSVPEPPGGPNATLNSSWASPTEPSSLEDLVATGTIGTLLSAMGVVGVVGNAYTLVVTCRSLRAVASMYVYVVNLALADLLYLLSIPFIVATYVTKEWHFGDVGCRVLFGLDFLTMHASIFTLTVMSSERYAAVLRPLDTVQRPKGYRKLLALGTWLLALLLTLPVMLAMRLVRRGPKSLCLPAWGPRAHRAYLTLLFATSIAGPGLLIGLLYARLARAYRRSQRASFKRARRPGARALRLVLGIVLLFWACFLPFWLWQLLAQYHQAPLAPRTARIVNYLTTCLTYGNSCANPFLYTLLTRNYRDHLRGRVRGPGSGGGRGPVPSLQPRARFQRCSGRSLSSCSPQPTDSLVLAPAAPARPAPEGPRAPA", "protocol": "as §1"}, "168 GPCRs [14]": {"target": "168 GPCRs (Homo sapiens, UniProt P30518)", "sequence (P30518 whole entry)": "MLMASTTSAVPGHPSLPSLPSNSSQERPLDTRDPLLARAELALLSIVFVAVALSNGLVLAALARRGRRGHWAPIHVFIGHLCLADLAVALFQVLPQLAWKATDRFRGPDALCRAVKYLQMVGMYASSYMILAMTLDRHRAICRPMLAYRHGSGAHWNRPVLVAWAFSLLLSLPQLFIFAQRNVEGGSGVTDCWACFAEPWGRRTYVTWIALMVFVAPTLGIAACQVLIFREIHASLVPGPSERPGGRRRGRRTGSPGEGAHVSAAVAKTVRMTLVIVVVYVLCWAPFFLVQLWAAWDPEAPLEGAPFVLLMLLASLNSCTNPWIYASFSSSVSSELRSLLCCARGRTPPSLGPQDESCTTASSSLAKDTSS", "settings": "AVPR2, Agonist", "protocol": "as §1"}, "168 GPCRs [15]": {"target": "168 GPCRs (Homo sapiens, UniProt P30411)", "settings": "BDKRB2; Agonist; 1 uM", "protocol": "as §1"}, "168 GPCRs [16]": {"target": "168 GPCRs (Homo sapiens, UniProt Q16602)", "sequence (Q16602 23-461)": "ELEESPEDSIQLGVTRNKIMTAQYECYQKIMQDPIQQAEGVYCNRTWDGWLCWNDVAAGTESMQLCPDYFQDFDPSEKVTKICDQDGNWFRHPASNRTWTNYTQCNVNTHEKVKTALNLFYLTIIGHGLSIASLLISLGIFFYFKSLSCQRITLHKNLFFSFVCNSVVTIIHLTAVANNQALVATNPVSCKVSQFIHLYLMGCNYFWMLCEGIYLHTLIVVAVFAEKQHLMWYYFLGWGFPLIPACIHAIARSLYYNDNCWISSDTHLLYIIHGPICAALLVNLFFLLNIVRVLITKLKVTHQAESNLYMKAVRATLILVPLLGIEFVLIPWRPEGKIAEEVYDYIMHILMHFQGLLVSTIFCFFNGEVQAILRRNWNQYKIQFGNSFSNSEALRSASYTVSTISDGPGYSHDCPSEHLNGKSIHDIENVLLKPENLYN", "settings": "Agonist", "protocol": "as §1"}, "168 GPCRs [17]": {"target": "168 GPCRs (Homo sapiens, UniProt P30550)", "settings": "GRPR", "protocol": "as §1"}, "168 GPCRs [18]": {"target": "168 GPCRs (Homo sapiens, UniProt P37288)", "sequence (P37288 whole entry)": "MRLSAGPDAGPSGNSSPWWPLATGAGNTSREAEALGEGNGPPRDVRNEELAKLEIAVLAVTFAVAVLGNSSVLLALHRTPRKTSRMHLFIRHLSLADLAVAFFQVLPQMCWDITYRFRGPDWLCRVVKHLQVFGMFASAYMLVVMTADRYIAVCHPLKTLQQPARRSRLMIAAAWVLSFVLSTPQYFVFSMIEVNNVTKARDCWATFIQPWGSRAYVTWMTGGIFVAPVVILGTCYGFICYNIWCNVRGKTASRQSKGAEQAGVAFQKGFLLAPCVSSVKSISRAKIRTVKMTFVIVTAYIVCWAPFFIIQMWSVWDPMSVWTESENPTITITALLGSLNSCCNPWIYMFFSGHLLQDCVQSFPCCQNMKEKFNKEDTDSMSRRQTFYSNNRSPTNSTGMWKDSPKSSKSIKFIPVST", "settings": "AVPR1A, Agonist", "protocol": "as §1"}, "168 GPCRs [19]": {"target": "168 GPCRs (Homo sapiens, UniProt P47871)", "sequence (P47871 26-477)": "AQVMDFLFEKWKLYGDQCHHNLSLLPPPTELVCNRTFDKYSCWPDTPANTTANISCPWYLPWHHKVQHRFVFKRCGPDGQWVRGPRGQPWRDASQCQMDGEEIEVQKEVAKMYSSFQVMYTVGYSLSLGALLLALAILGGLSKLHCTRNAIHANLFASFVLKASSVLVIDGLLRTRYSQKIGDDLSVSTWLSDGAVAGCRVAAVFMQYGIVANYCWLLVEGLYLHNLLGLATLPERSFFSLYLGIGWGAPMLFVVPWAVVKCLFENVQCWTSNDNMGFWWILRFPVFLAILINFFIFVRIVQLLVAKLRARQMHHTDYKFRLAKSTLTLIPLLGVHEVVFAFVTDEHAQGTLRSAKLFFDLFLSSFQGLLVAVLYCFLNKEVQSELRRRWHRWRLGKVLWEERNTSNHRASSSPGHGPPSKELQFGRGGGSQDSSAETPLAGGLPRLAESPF", "settings": "GCGR", "protocol": "as §1"}, "168 GPCRs [20]": {"target": "168 GPCRs (Homo sapiens, UniProt Q15077)", "sequence (Q15077 whole entry)": "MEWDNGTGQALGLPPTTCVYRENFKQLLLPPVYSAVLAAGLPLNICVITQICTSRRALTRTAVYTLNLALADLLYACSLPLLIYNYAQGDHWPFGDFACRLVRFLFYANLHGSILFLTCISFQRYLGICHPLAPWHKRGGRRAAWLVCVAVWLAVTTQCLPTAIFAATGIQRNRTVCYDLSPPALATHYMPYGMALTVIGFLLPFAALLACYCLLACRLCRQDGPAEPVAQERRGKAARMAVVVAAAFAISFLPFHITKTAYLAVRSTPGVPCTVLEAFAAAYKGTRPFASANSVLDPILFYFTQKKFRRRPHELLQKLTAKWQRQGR", "protocol": "as §1"}}, "note": "Read-outs that look alike come from different tables or passages of the source."}
{"smiles": "CNC(C)C(=O)c1ccc2c(c1)OCO2", "note": "(stereo not shown) [methylone, 3,4-methylenedioxy-N-methylcathinone]", "values": [{"measurement": "activity at 10 µM", "setting": "168 GPCRs [1]; Agonist mode, 10 uM", "result": 0.2, "unit": "%"}, {"measurement": "activity at 1 µM", "setting": "168 GPCRs [1]; Agonist, 1 uM", "result": 2.5, "unit": "%"}, {"measurement": "activity at 10 µM", "setting": "168 GPCRs [2]; SSTR1, Agonist mode, 10 uM", "result": -7.4, "unit": "%"}, {"measurement": "activity at 1 µM", "setting": "168 GPCRs [2]; SSTR1, Agonist, 1 uM", "result": -5.3, "unit": "%"}, {"measurement": "activity at 10 µM", "setting": "168 GPCRs [3]; MRGPRX1, Agonist mode, 10 uM", "result": -1.5, "unit": "%"}, {"measurement": "activity at 1 µM", "setting": "168 GPCRs [3]; MRGPRX1, Agonist, 1 uM", "result": -1.7, "unit": "%"}, {"measurement": "activity at 10 µM", "setting": "168 GPCRs [4]; OXER1, Agonist mode, 10 uM", "result": -3.7, "unit": "%"}, {"measurement": "activity at 1 µM", "setting": "168 GPCRs [4]; OXER1, Agonist, 1 uM", "result": 3.2, "unit": "%"}, {"measurement": "activity at 1 µM", "setting": "168 GPCRs [5]; 1 uM", "result": 8.4, "unit": "%"}, {"measurement": "activity at 10 µM", "setting": "168 GPCRs [5]; 10 uM", "result": 12.9, "unit": "%"}, {"measurement": "activity at 10 µM", "setting": "168 GPCRs [6]; CX3CR1, Agonist mode, 10 uM", "result": -0.4, "unit": "%"}, {"measurement": "activity at 1 µM", "setting": "168 GPCRs [6]; CX3CR1, Agonist, 1 uM", "result": 0, "unit": "%"}, {"measurement": "activity at 1 µM", "setting": "168 GPCRs [7]; 1 uM", "result": -3.4, "unit": "%"}, {"measurement": "activity at 10 µM", "setting": "168 GPCRs [7]; 10 uM", "result": -3.7, "unit": "%"}, {"measurement": "activity at 10 µM", "setting": "168 GPCRs [8]; Agonist mode, 10 uM", "result": -4.3, "unit": "%"}, {"measurement": "activity at 1 µM", "setting": "168 GPCRs [8]; Agonist, 1 uM", "result": -8.7, "unit": "%"}, {"measurement": "activity at 10 µM", "setting": "168 GPCRs [9]; SSTR5, Agonist mode, 10 uM", "result": -1.3, "unit": "%"}, {"measurement": "activity at 1 µM", "setting": "168 GPCRs [9]; SSTR5, Agonist, 1 uM", "result": -2.4, "unit": "%"}, {"measurement": "activity at 10 µM", "setting": "168 GPCRs [10]; P2RY4, Agonist mode, 10 uM", "result": 4.1, "unit": "%"}, {"measurement": "activity at 1 µM", "setting": "168 GPCRs [10]; P2RY4, Agonist, 1 uM", "result": -3.3, "unit": "%"}, {"measurement": "activity at 10 µM", "setting": "168 GPCRs [11]; PTHR2, Agonist mode, 10 uM", "result": -0.5, "unit": "%"}, {"measurement": "activity at 1 µM", "setting": "168 GPCRs [11]; PTHR2, Agonist, 1 uM", "result": -0.6, "unit": "%"}, {"measurement": "activity at 10 µM", "setting": "168 GPCRs [12]; Agonist mode, 10 uM", "result": -0.8, "unit": "%"}, {"measurement": "activity at 1 µM", "setting": "168 GPCRs [12]; Agonist, 1 uM", "result": -0.3, "unit": "%"}, {"measurement": "activity at 10 µM", "setting": "168 GPCRs [13]; UTR2, Agonist mode, 10 uM", "result": 0, "unit": "%"}, {"measurement": "activity at 1 µM", "setting": "168 GPCRs [13]; UTR2, Agonist, 1 uM", "result": 0.6, "unit": "%"}, {"measurement": "activity at 1 µM", "setting": "168 GPCRs [14]; 1 uM", "result": -0.9, "unit": "%"}, {"measurement": "activity at 10 µM", "setting": "168 GPCRs [14]; 10 uM", "result": 1, "unit": "%"}, {"measurement": "activity at 1 µM", "setting": "168 GPCRs [15]", "result": -3.6, "unit": "%"}, {"measurement": "activity at 1 µM", "setting": "168 GPCRs [16]; CALCRL-RAMP1, read-out: % Activity", "result": -2.6, "unit": "%"}, {"measurement": "activity at 10 µM", "setting": "168 GPCRs [16]; CALCRL-RAMP1", "result": -0.2, "unit": "%"}, {"measurement": "activity at 1 µM", "setting": "168 GPCRs [16]; CALCRL-RAMP2", "result": 0.1, "unit": "%"}, {"measurement": "activity at 10 µM", "setting": "168 GPCRs [16]; CALCRL-RAMP2", "result": 2.8, "unit": "%"}, {"measurement": "activity at 1 µM", "setting": "168 GPCRs [16]; CALCRL-RAMP3, read-out: % Activity", "result": -2.2, "unit": "%"}, {"measurement": "activity at 10 µM", "setting": "168 GPCRs [16]; CALCRL-RAMP3", "result": 2.2, "unit": "%"}, {"measurement": "activity at 10 µM", "setting": "168 GPCRs [17]; Agonist mode, 10 uM", "result": -0.1, "unit": "%"}, {"measurement": "activity at 1 µM", "setting": "168 GPCRs [17]; Agonist, 1 uM", "result": 0, "unit": "%"}, {"measurement": "activity at 1 µM", "setting": "168 GPCRs [18]; 1 uM", "result": -0.6, "unit": "%"}, {"measurement": "activity at 10 µM", "setting": "168 GPCRs [18]; 10 uM", "result": -0.5, "unit": "%"}, {"measurement": "activity at 10 µM", "setting": "168 GPCRs [19]; Agonist mode, 10 uM", "result": -3, "unit": "%"}, {"measurement": "activity at 1 µM", "setting": "168 GPCRs [19]; Agonist, 1 uM", "result": -2.3, "unit": "%"}, {"measurement": "activity at 10 µM", "setting": "168 GPCRs [20]; P2RY6, Agonist mode, 10 uM", "result": 2.4, "unit": "%"}, {"measurement": "activity at 1 µM", "setting": "168 GPCRs [20]; P2RY6, Agonist, 1 uM", "result": 4.5, "unit": "%"}]}
